Results taken from patent publication US9539341B2, “Methods and compositions for targeting adipose cells in mammals” (Board of Regents, the University of Texas System, priority 2011, dated 2017).
Where two headings read alike, the source gives them in different places.

Columns and labels:
[1] = system: C34+CD31−CD45− cells isolated from lung; test: In vivo competition (re-homing) assay of 11 admixed phage clones, lung; design: species or system mouse; conditions: equal amounts of 11 phage clones mixed and injected; percent of sequenced clones on C34+CD31−CD45− cells from lung
Description: (§1) For competitive homing experiment, 5×10^9 TU for each of the 11 chosen phage clones were admixed and the combined 5.5×10^10 TU was injected. For validation of individual clones, 1×10^10 TU for each phage clones was injected. After 1 hr of circulation and heart perfusion with 10 ml of phosphate buffer saline (PBS), WAT, tibia/femurs, bone-associated skeletal muscle, and lungs were collected. Bone marrow was isolated by flushing tibia/femurs. Hematopoietic and endothelial cells were depleted from cell suspensions of each organ by Dynabeads (Invitrogen) coated with anti-TER119, anti-CD31, and anti-CD45 antibodies (BD Biosciences), after which the remaining cells were processed by FACS to purify CD34+CD31−CD45− cells. Bound phage were recovered by infecting K91 E. coli, quantified by phage transforming unit (TU) counting, and processed for sequencing of the peptide-coding DNA as described in Arap, et al. 2002, ibid and Kolonin, et al., 2006, ibid. For identification of conserved peptide motifs, ClustalW2 software was used.
(§2) After 4 rounds of synchronous in vivo biopanning, eight CX7C and CX8C sequences repeatedly recovered from ASC with frequency above 1% were identified, which were termed WAT1 through WAT8 (see Table 1 below). In parallel, a matched number of peptide inserts homing to lung stromal cells (LSC) were sequenced as a control. None of the WAT-homing peptides were enriched in the lung. Four sequences repeatedly recovered in the lung with frequency above 1%, were termed LU1 through LU4 (see Table 1 below). […] Because the focus of this study is WAT-specific MSC, this clone was excluded from further analysis. Other selected peptides were subjected to an in vivo competition assay in order to identify those with the highest specificity of binding. Equal amounts of phage for the 11 clones displaying peptides WAT1 through WAT7 (SEQ ID NOS: 1-14) and LU1 through LU4 (SEQ ID NOS: 17-24) were admixed and injected into a mouse. Homing specificity of each clone was assessed by quantifying frequency of phage coding for each peptide selected on C34+CD31−CD45− cells isolated from either WAT or lung.

[2] = molecular target: T1, recombinant bacterially-purified full-length core mouse DCN (mDCN) (Mus musculus, UniProt P28654); test: ELISA binding assay, recombinant full-length core mouse DCN; conditions: His6-tagged protein coated at 10 μg/ml
T1 construct: cloning fragments encoding amino acids 1-354 and 45-354 of mouse DCN cDNA (OriGene); His6; made in house
T1 sequence (P28654 17-354): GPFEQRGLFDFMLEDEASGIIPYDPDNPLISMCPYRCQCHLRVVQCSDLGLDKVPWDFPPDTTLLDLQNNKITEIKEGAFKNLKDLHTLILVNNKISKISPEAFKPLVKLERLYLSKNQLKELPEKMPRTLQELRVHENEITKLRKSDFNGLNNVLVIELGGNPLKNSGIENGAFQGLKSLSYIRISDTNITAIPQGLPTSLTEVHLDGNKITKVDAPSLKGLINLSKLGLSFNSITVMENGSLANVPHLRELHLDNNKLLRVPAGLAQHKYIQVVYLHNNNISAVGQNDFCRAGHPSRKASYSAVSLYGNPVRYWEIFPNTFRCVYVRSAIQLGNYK
Description: (§3) Immunoblotting and Binding Assays: Protein preparations resolved on SDS-PAGE were blotted onto Immobilon-FL membrane (Millipore), blocked with Odyssey blocking buffer (Licor Biosciences), and probed (in PBS/0.05% Triton X-100) with goat anti-DCN (R&D Systems, 1:1,000), rabbit anti-ANX2A (Aviva, 1:1,000), rabbit anti-mouse b-actin (Abcam, 1:10,000) antibodies, or pre- and post-immune antisera against WAT7 (1:1,000) as indicated. Signal was detected by Odyssey imaging system using anti-goat IRDye 800CW or anti-rabbit IRDye 680 both from Licor Biosciences. Bovine DCN was from Sigma-Aldrich, NS0-derived murine DCN was from R&D Systems. Murine DCN cDNA was generated from WAT total RNA using SuperScript kit (Invitrogen). For bacterial expression, full-length mouse core DCN and ΔDCN isoforms were produced by cloning fragments encoding amino acids 1-354 and 45-354 of mouse DCN cDNA (OriGene) or of CLIC4 cDNA (OriGene) in-frame with the His6Tag into pET28a vector, respectively. His6-tagged proteins were purified with His-Tag kit (Novagen). […] Bound peptides or FLAG-resistin were probed with corresponding rabbit anti-peptide Genemed antibodies (1:2,000) or rabbit anti-FLAG antibodies (Sigma-Aldrich, 1:2,000) followed by secondary goat anti-rabbit HRP-conjugated antibodies (Millipore, 1:5,000) and signal detection with Ultra-TMB (Pierce) substrate and measurement of absorbance at 450 nm. […]

[3] = system: CD34+CD31−CD45− cells (MSC) from WAT; test: Synchronous in vivo phage display biopanning, clones recovered from WAT MSC (ASC); design: species or system mouse; conditions: percent of sequenced phage clones carrying the insert in WAT after 4 rounds of synchronous in vivo biopanning on CD34+CD31−CD45− cells
Description: (§4) Phage Library Screening: Random peptide libraries based on the M13-derived bacteriophage vector fUSE5 displaying inserts CX7C, CX8C, and CX9C on the pIII protein were admixed (1:1:1) to the combined 10^10 TU of mixed library for the screen performed based on the synchronous biopanning in vivo upon tail vein injection (see for example, US20050074747 and Arap, et al., Nat. Med. 8:121-127, 2002; Kolonin, et al., FASEB J. 20: 979-981, 2006).
as §1
(§5) Methods for isolation of MSC by fluorescence-activated cell sorting (FACS) from organ cell suspensions based on the C34+CD31−CD45− immunophenotype (FIG. 8B) were combined with phage display and optimized for ASC. By adapting the previously described “synchronous in vivo biopanning” method of (Kolonin et al., 2006, ibid), a mixture of cyclic CX7C, CX8C, and CX9C (C: disulfide-bonded cysteines; X: any amino acid) random peptide libraries was screened (FIG. 1A). This approach made it possible to select MSC probes from the pool of over 10^11 combinatorial peptides. Throughout the screen, progressive enrichment in the number of phage particles recovered on MSC from WAT, as well as from the chosen control organs: lung, bone marrow, and skeletal muscle (FIG. 1B) was observed.
as §2
(§6) Shown in Table 1 above are the percent (%) of the sequenced phage clones that carried the indicated WAT or LU insert present within WAT (% in WAT) or lung (% in LUNG) following 4 rounds of synchronous in vivo biopanning on CD34+CD31−CD45− cells.

[4] = system: C34+CD31−CD45− cells isolated from WAT; test: In vivo competition (re-homing) assay of 11 admixed phage clones, WAT; design: species or system mouse; conditions: equal amounts of 11 phage clones mixed and injected; percent of sequenced clones on C34+CD31−CD45− cells from WAT
Description: as §1, §2

[5] = system: CD34+CD31−CD45− cells (MSC) from lung; test: Synchronous in vivo phage display biopanning, clones recovered from lung MSC (LSC); design: species or system mouse; conditions: percent of sequenced phage clones carrying the insert in lung after 4 rounds of synchronous in vivo biopanning on CD34+CD31−CD45− cells
Description: as §4, §1, §5, §2, §6

[6] = system: cells from the kidney or peripheral blood; test: In vivo apoptosis in non-target tissues, APO-TRACE and flow cytometry; design: species or system mice; conditions: 2 mg injected, 48 hrs
Description: FIG. 15 illustrates that apoptosis induced by treatment with cytotoxic WAT7-KLAKLAK2 (SEQ ID NO:13-SEQ ID NO:31) all-D-peptide was limited to target tissue. APO-TRACE reagent (Sigma) and flow cytometry were used to detect apoptosis induction in both subcutaneous and intraperitoneal WAT cells, but not in cells from the kidney or peripheral blood.
(§7) In some embodiments targeting peptides selective for angiogenic vasculature in adipose tissue could be used to treat obesity associated disorders, for example for weight reduction or for preventing weight gain. […] Because brown adipose tissue more vascularized, a vasculature based targeting approach would be very effective for delivery of therapeutic reagents to BAT for activation of this tissue.
(§8) This reduction was due to the targeted depletion of ASC through apoptotic cell death as evidenced at 48 hrs after injection (see FIG. 14).

[7] = Maximal tolerable dose (MTD) with increasing peptide doses; type: in vivo, mice
Description: as §7
When the therapeutic treatment of adipose associated body composition or body weight disorders such as obesity, lypodystrophy, diabetes or metabolic syndrome, fibrosis and cancer is contemplated, the appropriate dosage may also be determined using animal studies to determine the maximal tolerable dose, or MTD, of a bioactive agent per kilogram weight of the test subject. In general, at least one animal species tested is mammalian. Those skilled in the art regularly extrapolate doses for efficacy and avoiding toxicity to other species, including human. Before human studies of efficacy are undertaken, Phase I clinical studies help establish safe doses.
as §8

[8] = molecular target: T2, full-length glycosylated mouse DCN (mDCN*) (Mus musculus, UniProt P28654); test: ELISA binding assay, glycosylated mouse DCN; conditions: compared with BSA background
T2 construct: full-length glycosylated mouse DCN (mDCN*); purchased R&D Systems; host or cells: NS0
T2 sequence (P28654 31-354): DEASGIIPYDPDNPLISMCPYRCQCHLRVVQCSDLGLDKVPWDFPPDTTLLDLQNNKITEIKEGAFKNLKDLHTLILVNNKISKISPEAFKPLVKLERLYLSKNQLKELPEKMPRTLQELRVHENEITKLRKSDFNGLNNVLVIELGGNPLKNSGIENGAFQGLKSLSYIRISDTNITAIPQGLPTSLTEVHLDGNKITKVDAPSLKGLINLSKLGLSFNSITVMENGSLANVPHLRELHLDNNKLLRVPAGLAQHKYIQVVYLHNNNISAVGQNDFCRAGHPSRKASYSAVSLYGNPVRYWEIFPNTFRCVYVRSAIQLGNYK
Description: as §3

[9] = molecular target: T3, glycosylated bovine DCN (bDCN*) (Bos taurus, UniProt P21793); test: ELISA binding assay, glycosylated bovine DCN; conditions: compared with BSA background
T3 construct: purchased Sigma-Aldrich
T3 sequence (P21793 31-360): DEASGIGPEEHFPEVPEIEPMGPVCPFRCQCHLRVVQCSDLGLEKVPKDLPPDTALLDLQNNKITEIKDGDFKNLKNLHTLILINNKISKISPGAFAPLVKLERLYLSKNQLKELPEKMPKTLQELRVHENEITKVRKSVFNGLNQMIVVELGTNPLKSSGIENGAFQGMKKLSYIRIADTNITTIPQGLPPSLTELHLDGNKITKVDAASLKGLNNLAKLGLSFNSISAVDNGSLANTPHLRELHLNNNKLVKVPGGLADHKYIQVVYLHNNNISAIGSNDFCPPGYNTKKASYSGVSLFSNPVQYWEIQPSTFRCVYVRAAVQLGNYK
Description: as §3

[10] = molecular target: T4, recombinant bacterially-purified mouse ΔDCN (Mus musculus, UniProt P28654); test: ELISA binding assay, ΔDCN; conditions: His6-tagged protein coated at 10 μg/ml
T4 construct: cloning fragments encoding amino acids 1-354 and 45-354 of mouse DCN cDNA (OriGene); His6; made in house
T4 sequence (P28654 45-354): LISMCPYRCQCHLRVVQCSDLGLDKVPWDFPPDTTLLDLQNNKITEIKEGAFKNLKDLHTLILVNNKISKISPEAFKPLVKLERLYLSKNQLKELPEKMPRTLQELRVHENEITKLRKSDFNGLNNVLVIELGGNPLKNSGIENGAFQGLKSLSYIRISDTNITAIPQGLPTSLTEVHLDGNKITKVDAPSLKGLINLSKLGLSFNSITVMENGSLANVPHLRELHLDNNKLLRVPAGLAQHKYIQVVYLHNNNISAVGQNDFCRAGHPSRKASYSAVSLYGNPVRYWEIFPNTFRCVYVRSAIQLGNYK
Description: as §3

For “YKNVDSGG [WAT-2, used as control peptide]”, which “Re-home to Lung (%)” value [1] is on record?
Its value is 2.9%.

And the “binding to recombinant core mouse DCN (OD450)” value [2]?
The value was “did not display DCN binding”.

What about the “% in WAT” value [3] of the same molecule?
Its value is 2.9%.

And the “Re-home to WAT (%)” value [4]?
The value was 2.1%.

What about the “% in LUNG” value [5] of the same molecule?
The value was 0%.

Which results are given for CC(C)C[C@@H](NC(=O)[C@@H](CCCCN)NC(=O)CCCCCNC(=O)[C@H]1CSSC[C@@H](N)C(=O)N[C@H](CO)C(=O)N[C@H](Cc2c[nH]c3ccccc23)C(=O)N[C@H](CCCCN)C(=O)N[C@H](Cc2ccc(O)cc2)C(=O)N[C@H](Cc2c[nH]c3ccccc23)C(=O)N[C@H](Cc2ccccc2)C(=O)NCC(=O)N[C@H](CCC(=O)O)C(=O)N1)C(=O)N[C@H](C)C(=O)N[C@H](CCCCN)C(=O)N[C@H](CC(C)C)C(=O)N[C@H](C)C(=O)N[C@H](CCCCN)C(=O)N[C@H](CCCCN)C(=O)N[C@H](CC(C)C)C(=O)N[C@H](C)C(=O)N[C@H](CCCCN)C(=O)N[C@H](CC(C)C)C(=O)N[C@H](C)C(=O)N[C@H](CCCCN)C(=O)O [WAT7-KLAKLAK2]?
apoptotic cell death in kidney or peripheral blood [6]: no apoptotic cell death was identified; MTD [7]: No MTD was reached; MTD ([7]; mouse, in vivo, read-out: MTD): > 100 mg/kg

B1: Resistin: FLAG-tagged mouse resistin produced in HEK293 cells; WAT-secreted adipokine, ligand of ΔDCN (protein)
chain: SSMPLCPIDEAIDKKIKQDFNSLFPNAIKNIGLNCWTVSSRGKLASCPEGTAVLSCSCGSACGSWDIREEKVCHCQCARIDWTAARCCKLQVAS
For B1, which “binding to glycosylated mouse DCN (OD450)” value [8] is on record?
The value was “completely inefficient in binding”.

What about the “binding to glycosylated bovine DCN (OD450)” value [9] of the same molecule?
The value was “completely inefficient in binding”.

And the “binding to ΔDCN (OD450)” value [10]?
Its value is “dose-dependent”.
